Measured values taken from ChEMBL document CHEMBL1124017, “Synthesis, absolute configuration, and molecular modeling study of etoxadrol, a potent phencyclidine-like agonist” (J Med Chem, 1988).

Key:
Glutamate NMDA receptor = assay: Displacement of [3H]TCP from tissue homogenate preparation of whole rat brain minus cerebellum; type: tissue-based
Rattus norvegicus = organism: Rattus norvegicus; assay: Behavioral potency by which rat discriminate phencyclidine from saline in a 2 lever drug discrimination procedure; type: functional

Row | Ki (Glutamate NMDA receptor) [µM] | Structure (SMILES) | ED50 (Rattus norvegicus) [µM]
1 | 38 | CC[C@@]1(c2ccccc2)OC[C@H]([C@H]2CCCCN2)O1.CC[C@]1(c2ccccc2)OC[C@H]([C@H]2CCCCN2)O1 | >100
2 | 40 | CC[C@@]1(c2ccccc2)OC[C@@H]([C@@H]2CCCCN2)O1.CC[C@]1(c2ccccc2)OC[C@@H]([C@@H]2CCCCN2)O1 | >100

The next lines start with the compound.

Row | Structure (SMILES) | Ki (Glutamate NMDA receptor) [µM] | ED50 (Rattus norvegicus) [µM]
3 | CC[C@@]1(c2ccccc2)OC[C@H]([C@@H]2CCCCN2)O1 | 3.7 | –
4 | CC[C@@]1(c2ccccc2)OC[C@@H]([C@H]2CCCCN2)O1 | 2.3 | >100
5 | CC[C@]1(c2ccccc2)OC[C@H]([C@@H]2CCCCN2)O1 [ETOXADROL] | 0.107 | 2.4
